Results taken from US20230265167A1, “COMPOSITIONS HAVING NEUROREGENERATIVE APPLICATIONS” (GRIFOLS WORLDWIDE OPERATIONS LIMITED, priority 2020, published 2023).

Columns and labels:
SH-SY5Y cells [1] = assay: β-III-tubulin staining intensity in SH-SY5Y cells; type: cell-based, human; details: FIG. 1D
Procedure: In this experiment, the SH-SY5Y cells were differentiated as described supra. At the time of analysis, cells were fixed with paraformaldehyde, stained for β-III-tubulin (R&D Systems, MAB1195), and imaged on a Molecular Devices Nano imaging instrument. Image analysis was performed by assessing the fluorescent intensity of cells stained with β-III-tubulin. Background from secondary antibody alone was subtracted from all values. Values are shown with standard deviations as “β-III-Tubulin Staining Intensity” for the indicated conditions.

[2] = tested on: C57BL/6J mice with transient MCAo; assay: Neurogenesis in dentate gyrus of mice after transient MCAo (BrdU/DCX, BrdU/NeuN immunohistochemistry); type: in vivo, mouse; details: 350 mg/kg i.p. daily 7 days, vs saline; for number of new neuroblasts (BrdU+/DCX+ cells): FIG. 9A, two-week period; for number of newly formed mature neurons (BrdU+/NeuN+ cells): FIG. 9B, after 4 weeks
Procedure: C57BL/6J mice (ca. 20 g) were anaesthetized under isoflurane and, after dissection, a 6.0 silicon-coated monofilament suture was inserted into the external carotid artery to occlude the middle cerebral artery (MCAo). The occlusion was carried out for 60 minutes under temperature control.
Only animals with a ‘neuroscore’ of 4 or greater were considered for further testing (n=8-10 animals/group). At six hours post-occlusion, mice were injected daily with 350 mg/kg of Apo-transferrin (i.p.) or an equal volume of saline for a total of seven days, as well as with 50 mg/kg Bromodeoxyuridine (BrdU; Sigma-Aldrich Chemical, St. Louis, Mo.), both articles delivered by intraperitoneal administration. Weight changes were monitored daily.
At the times indicated in Example 9, brains were prepared for analysis by transcardial perfusion with ice cold heparinized saline (heparin at 2.5 IU/ml) in order to remove blood from the brains. Fresh brains were removed leaving the right cerebellum attached to whole left-brain hemisphere to help orientate the brain block in sectioning. The whole left hemisphere block was placed in 4% paraformaldehyde in 0.1 M phosphate buffer (PB) for 24 hours at +4° C., then cryoprotected in 30% sucrose in 0.1 M PB for 2-3 days on a shaker at +4° C. The brain was then blotted to remove excess liquid, placed on top of a vial cork and frozen on top of liquid nitrogen; the block was then stored at −80° C. until cryostat sections are obtained. Neurogenesis was evaluated by immunohistochemistry using antibodies against BrdU and Doublecortin (DCX) to quantify new neuroblasts or against BrdU and NeuN to quantify new neurons in the dentate gyrus of the brain.

SH-SY5Y cells [3] = assay: Neurite outgrowth (differentiation) in SH-SY5Y cells, Tubulin Tracker imaging; type: cell-based, human
Procedure: Transferrin is utilized in cell culture and in-vivo to deliver iron as a nutrient to cells. This is typically accomplished through the actions of holo-transferrin (HoloTf) binding to, and endocytosis by, its cognate receptor CD71, the transferrin receptor 1 (TfR1). Transferrin is typically believed to provide cells with iron as a means to promote and sustain metabolic activity. […] Induction of neuronal differentiation was assessed by morphological parameters of neurite formation (a key element typically used as a marker of neuronal differentiation, neuronal health, and function) according to the procedures of Agholme, 2010. J. of Alzheimer's Disease. Vol. 20:1p 069-108; and Dyberg et al., 2017. PNAS Vol 114 (32), E6603-E6612.
(§1) Undifferentiated SH-SY5Y cells were seeded into 96 well clear bottom plates in media containing 0.1% FBS. A serum-free base media was utilized as recommended by the supplier for SH-SY5Y cells (Sigma, Cat #94030304-1VL). Twenty-four hours after seeding cells, a 3× stock solution of ApoTf, final concentrations indicated on the x-axis, in serum free base media was added to the cells. ApoTf was obtained and purified from pooled human plasma and dosed at a final concentration of 0.2 mg/mL.
(§2) Cells were allowed to differentiate for 6 days. Neurite growth was assessed by imaging and image analysis. At the time of analysis, a 10× solution of Tubulin Tracker (Molecular Probes, T34075) and Hoechst 33342 (Molecular Probes #H3570) nuclear stain was prepared.
Briefly, Tubulin Tracker dissolved in DMSO was diluted 1:1 with Pluronic F-127 and further diluted into HBSS to generate a 10× solution. Hoechst 33342 was added to the HBSS-Tubulin Tracker solution at 10 μg/mL to generate a 10× nuclear stain. The 10× staining solution (10 μL) was added directly to treated assay wells and incubated at 37° C. for 30 minutes. Following incubation, 110 μL of 0.4% Trypan Blue was added directly to assay wells and imaged on a Molecular Devices Nano imaging instrument. Nine images/well were acquired in the blue (Nuclei) and green (Tubulin) fluorescent channels for each image.
(§3) After obtaining images, the MetaExpress Neurite Outgrowth analysis module (Molecular Devices) was used to identify cells, cell bodies, and quantify neurites. The total number of neurite branches were divided by the total number of cells imaged to account for different numbers of cells in each test well. The Outgrowth Fold Change was determined by setting the untreated control cells to a value of 1 with all other treatments shown relative to untreated control.
Undifferentiated SH-SY5Y cells were seeded and treated as described in Example 1. Neurite growth was assessed by imaging and image analysis. At the time of analysis, a 10× solution of Tubulin Tracker (Molecular Probes, T34075) and Hoechst 33342 (Molecular Probes #H3570) nuclear stain was prepared. Briefly, Tubulin Tracker dissolved in DMSO was diluted 1:1 with Pluronic F-127 and further diluted into HBSS to generate a 10× solution. Hoechst 33342 was added to the HBSS-Tubulin Tracker solution at 10 μg/mL to generate at 10× nuclear stain. The 10× staining solution (10 μL) was added directly to treated assay wells and incubated at 37° C. for 30 minutes. Following incubation, 110 μL of 0.4% Trypan Blue was added directly to assay wells and imaged on a Molecular Devices Nano imaging instrument. Nine images/well were acquired in the blue (Nuclei) and green (Tubulin) fluorescent channels for each image. After obtaining images, the MetaExpress Neurite Outgrowth analysis module (Molecular Devices) was used to identify cell bodies and quantify neurites. The total number of neurite branches were divided by the total number of cells imaged to account for different numbers of cells. The Outgrowth Fold Change was determined by setting the untreated control to a value of 1 with all other treatments shown relative to untreated control. ApoTf was obtained and purified from pooled human plasma and dosed at a final concentration of 0.2 mg/mL. […]

SH-SY5Y cells [4] = assay: Cell number / proliferation of SH-SY5Y cells by imaging; type: cell-based, human
Procedure: as §1, §2
Briefly, Tubulin Tracker dissolved in DMSO was diluted 1:1 with Pluronic F-127 and further diluted into HBSS to generate a 10× solution. Hoechst 33342 was added to the HBSS-Tubulin Tracker solution at 10 μg/mL to generate a 10× nuclear stain. […]
as §3, with “The total number of neurite branches were divided by the total number of cells imaged to account for different numbers of cells in each test well.” left out

**Q.** For “apo-transferrin: iron-free form of transferrin protein, obtained and purified from pooled human plasma”, which “β-III-Tubulin Staining Intensity” value (SH-SY5Y cells [1]) is on record?
**A.** caused an increase in β-III-tubulin protein

**Q.** What about the “number of new neuroblasts (BrdU+/DCX+ cells)” value [2] of the same substance?
**A.** increases the amount of neurogenesis

**Q.** And the “number of new neuroblasts (BrdU+/DCX+ cells)” value ([2]; listed as ApoTf)?
**A.** increases the number of neuroblasts

**Q.** And the “number of newly formed mature neurons (BrdU+/NeuN+ cells)” value [2]?
**A.** increases the amount of neurogenesis

**Q.** What about the “number of newly formed mature neurons (BrdU+/NeuN+ cells)” value ([2]; listed as ApoTf) of the same substance?
**A.** number of newly formed mature neurons are higher

**Q.** What about the “neurite outgrowth (Outgrowth Fold Change)” value (SH-SY5Y cells [3]; FIG. 1A, dose response up to 0.8 mg/mL, 6 days) of the same substance?
**A.** able to induce neurite outgrowth in a dose dependent manner

**Q.** And the “neurite/tubulin outgrowth, visual comparison to untreated control” value (SH-SY5Y cells [3]; FIG. 1C, 0.1 mg/mL)?
**A.** promoting induction of neurite/tubulin outgrowth

**Q.** What about the “neurite outgrowth / differentiation versus concentration” value (SH-SY5Y cells [3]; FIG. 3A, DFO versus ApoTf) of the same substance?
**A.** continues to increase differentiation even up to 9.9 μM

**Q.** What about the “neurogenesis (neurite outgrowth) of SH-SY5Y” value (SH-SY5Y cells [3]; FIG. 3B, proteins at 0.2 mg/mL) of the same substance?
**A.** did induce neurogenesis

**Q.** What about the “neurogenic effect, ApoTf in combination with Y-27632” value (SH-SY5Y cells [3]; FIG. 8, ApoTf 0.1 mg/mL plus Y-27632 50 μM) of the same substance?
**A.** the neurogenic effect was synergistic

**Q.** What about the “differentiation / neurite outgrowth, combination with neurotrophic factors” value (SH-SY5Y cells [3]; FIGS. 7A-7D, ApoTf 0.1 mg/mL plus factor) of the same substance?
**A.** synergistic effect

**Q.** And the “cell numbers (cell proliferation)” value (SH-SY5Y cells [4]; FIG. 1B, up to 0.8 mg/mL)?
**A.** induces a concentration-dependent increase in cell numbers

**Q.** And the “cell proliferation, visual comparison to untreated control” value (SH-SY5Y cells [4]; FIG. 1C, 0.1 mg/mL)?
**A.** profound effect on promoting cell proliferation
